Legend:
[1] = logP determination by HPLC (reversed-phase C18), EEC Directive 79/831 Annex V.A 8; format: physicochemical; details: HPLC reversed-phase column (C 18), 43° C.; for chromatographic logP: reversed-phase C18 HPLC column, pH 2.3
Procedure: The logP values given for the Examples (I-2-A-a) were determined in accordance with EEC Directive 79/831 Annex V.A 8 by HPLC (High Performance Liquid Chromatography) using a reversed-phase column (C 18). Temperature: 43° C. • (a) Mobile phases for the determination in the acidic range: 0.1% aqueous phosphoric acid, acetonitrile; linear gradient from 10% acetonitrile to 90% acetonitrile. • (b) Mobile phases for the determination in the neutral range: 0.01 molar aqueous phosphate buffer solution, acetonitrile; linear gradient from 10% acetonitrile to 90% acetonitrile. Calibration was carried out using unbranched alkan-2-ones (of 3 to 16 carbon atoms) with known logP values (determination of the logP values by the retention times using linear interpolation between two successive alkanones).

[2] = tested on: greenhouse red spider mite (Tetranychus urticae); assay: Tetranychus test (OP-resistant/dip treatment); format: in vivo; details: 100 ppm active compound, OP-resistant, dip treatment
Procedure: Tetranychus Test (OP-Resistant/Dip Treatment)
To produce a suitable preparation of active compound, 1 part by weight of active compound is mixed with the stated amounts of solvent and emulsifier, and the concentrate is diluted with emulsifier-containing water to the desired concentration.
Bean plants (Phaseolus vulgaris) which are heavily infested by all stages of the greenhouse red spider mite (Tetranychus urticae) are treated by being dipped into a preparation of active compound of the desired concentration.
After the desired period of time, the effect in % is determined. 100% means that all spider mites have been killed; 0% means that none of the spider mites have been killed.

[3] = tested on: larvae of the mustard beetle (Phaedon cochleariae); assay: Phaedon larvae test; format: in vivo; details: 500 ppm active compound
Procedure: (§1) Phaedon larvae Test [table] To produce a suitable preparation of active compound, 1 part by weight of active compound is mixed with the stated amounts of solvent and emulsifier, and the concentrate is diluted with emulsifier-containing water to the desired concentration. Cabbage leaves (Brassica oleracea) are treated by being dipped into the preparation of active compound of the desired concentration and are populated with larvae of the mustard beetle (Phaedon cochleariae) while the leaves are still moist. After the desired period of time, the kill in % is determined. 100% means that all beetle larvae have been killed; 0% means that none of the beetle larvae have been killed.

Amaranthus = assay: Post-emergence test, greenhouse; format: in vivo; details: after three weeks
Procedure: (§2) Post-Emergence Test [table] To produce a suitable preparation of active compound, 1 part by weight of active compound is mixed with the stated amount of solvent, the stated amount of emulsifier is added and the concentrate is diluted with water to the desired concentration. Test plants of a height of 5-15 cm are sprayed with the preparation of active compound such that the particular amounts of active compound desired are applied per unit area. The concentration of the spray liquor is chosen such that the particular amounts of active compound desired are applied in 1000 l of water/ha. After three weeks, the degree of damage to the plants is rated in % damage in comparison to the development of the untreated control. The figures denote: [table]

Setaria = assay: Post-emergence test, greenhouse; format: in vivo; details: after three weeks
Procedure: as §2

Alopecurus = assay: Post-emergence test, greenhouse; format: in vivo; details: after three weeks
Procedure: as §2

Abutilon = assay: Post-emergence test, greenhouse; format: in vivo; details: 250 g ai/ha, after three weeks
Procedure: as §2

Sinapis = assay: Post-emergence test, greenhouse; format: in vivo; details: 250 g ai/ha, after three weeks
Procedure: as §2

Avena fatua = assay: Post-emergence test, greenhouse; format: in vivo; details: after three weeks
Procedure: as §2

[4] = tested on: caterpillars of the armyworm (Spodoptera frugiperda); assay: Spodoptera frugiperda test; format: in vivo; details: 500 ppm active compound
Procedure: as §1, with “Spodoptera frugiperda” for “Phaedon larvae”, “caterpillars” for “larvae”, “armyworm (Spodoptera frugiperda)” for “mustard beetle (Phaedon cochleariae)”, “caterpillars” for “beetle larvae”

[5] = tested on: peach aphid (Myzus persicae); assay: Myzus test (cabbage leaves dipped); format: in vivo; details: 500 ppm active compound
Procedure: as §1, with “Myzus” for “Phaedon larvae”, “oleracea) which are heavily infested by the peach aphid (Myzus persicae)” for “oleracea)”, “concentration.” for “concentration and are populated with larvae of the mustard beetle (Phaedon cochleariae) while the leaves are still moist.”, “aphids” for “beetle larvae”

[6] = tested on: cotton aphid (Aphis gossypii); assay: Aphis gossypii test (cotton leaves dipped); format: in vivo; details: 500 ppm active compound
Procedure: as §1, with “Aphis gossypii” for “Phaedon larvae”, “Cotton” for “Cabbage”, “(Gossypium hirsutum) which are heavily infested by the cotton aphid (Aphis gossypii)” for “(Brassica oleracea)”, “concentration.” for “concentration and are populated with larvae of the mustard beetle (Phaedon cochleariae) while the leaves are still moist.”, “aphids” for “beetle larvae”

Viola = assay: Post-emergence test, greenhouse; format: in vivo; details: 125 g ai/ha, after three weeks
Procedure: as §2

Sugarbeet = assay: Post-emergence test, greenhouse; format: in vivo; details: 250 g ai/ha, after three weeks
Procedure: as §2

Bromus = assay: Post-emergence test, greenhouse; format: in vivo; details: after three weeks
Procedure: as §2

Lolium = assay: Post-emergence test, greenhouse; format: in vivo; details: after three weeks
Procedure: as §2

Oilseed rape = assay: Post-emergence test, greenhouse; format: in vivo; details: 125 g ai/ha, after three weeks
Procedure: as §2

[7] = tested on: caterpillars of the diamondback moth (Plutella xylostella); assay: Plutella test; format: in vivo; details: 500 ppm active compound
Procedure: as §1, with “Plutella” for “Phaedon larvae”, “caterpillars” for “larvae”, “diamondback moth (Plutella xylostella)” for “mustard beetle (Phaedon cochleariae)”, “caterpillars” for “beetle larvae”

Cc1cc(-c2ccccc2)nn1C1=C(O)C(C)(C(C)C)OC1=O (centres unmarked) [Example I-2-A-a-9]
logP (pH 2.3) [1]: 1.50

Cc1cc(-c2ccc(Cl)cc2)nn1C1=C(O)C2(CCOCC2)OC1=O [Example I-2-A-a-7]
logP (pH 2.3) [1]: 1.55

Cc1cc(-c2ccc(Cl)cc2)nn1C1=C(O)C2(CCCOC2)OC1=O (centres unmarked) [Example I-2-A-a-6]
logP (pH 2.3) [1]: 1.49

Cc1cc(-c2ccc(Cl)cc2)nn1C1=C(OC(=O)C(C)(C)C)C2(CCCOC2)OC1=O (centres unmarked) [Example I-2-A-b-1]
chromatographic logP [1]: 4.32

CCOC(=O)OC1=C(n2nc(-c3ccc(Cl)cc3)cc2C)C(=O)NC12CCC(OC)CC2 (centres unmarked) [Example I-1-A-c-1]
Kill rate in % after 7d [2]: 98%
Kill rate in % after 7d [3]: 90%
% damage, Amaranthus (Amaranthus; 250 g ai/ha): 95%
% damage, Setaria (Setaria; 250 g ai/ha): 100%
% damage, Alopecurus (Alopecurus; 250 g ai/ha): 100%
% damage, Abutilon (Abutilon): 95%
% damage, Sinapis (Sinapis): 80%
% damage, Avena fatua (Avena fatua; 250 g ai/ha): 100%
Kill rate in % after 7d [4]: 100%

CCOC(=O)OC1=C(c2c(C)nn(-c3ccc(Cl)cc3)c2C)C(=O)NC12CCC(OC)CC2 (centres unmarked) [Example I-1-B-c-1]
% damage, Amaranthus (Amaranthus; 2000 g ai/ha): 90%
% damage, Setaria (Setaria; 2000 g ai/ha): 95%
% damage, Alopecurus (Alopecurus; 2000 g ai/ha): 90%
% damage, Avena fatua (Avena fatua; 2000 g ai/ha): 90%

Cc1cc(-c2ccc(Cl)cc2)nn1C1=C(O)C2(Cc3ccccc3C2)OC1=O [Example I-2-A-a-5]
logP (pH 2.3) [1]: 2.35

CCC1(C)OC(=O)C(n2nc(-c3ccc(Br)cc3)cc2C)=C1O (centres unmarked) [Example I-2-A-a-8]
logP (pH 2.3) [1]: 2.70

Cc1cc(-c2ccc(Cl)cc2)nn1C1=C(O)C(C)(C)OC1=O [Example I-2-A-a-3]
logP (pH 2.3) [1]: 1.74

COC1CCC2(CC1)OC(=O)C(n1nc(-c3ccc(Cl)cc3)cc1C)=C2O (centres unmarked) [Example I-2-A-a-1]
Kill rate in % after 6d [5]: 90%
chromatographic logP [1]: 2.05
Kill rate in % after 7d [2]: 100%

CCOC1CCC2(CC1)OC(=O)C(n1nc(-c3ccc(Cl)cc3)cc1C)=C2O (centres unmarked) [Example I-2-A-a-4]
logP (pH 2.3) [1]: 2.46

COC1CCC2(CC1)NC(=O)C(n1nc(-c3ccc(Cl)cc3)cc1C)=C2O (single isomer, unassigned) [Example I-1-A-a-4]
Kill rate in % after 6d [5]: 90%
Kill rate in % after 7d [2]: 95%
Kill rate in % after 6d [6]: 95%
Kill rate in % after 7d [3]: 100%
% damage, Setaria (Setaria; 125 g ai/ha): 100%
% damage, Setaria (Setaria; 250 g ai/ha): 100%
% damage, Viola (Viola): 100%
% damage, Alopecurus (Alopecurus; 125 g ai/ha): 100%
% damage, Alopecurus (Alopecurus; 250 g ai/ha): 100%
% damage, Sugarbeet (Sugarbeet): 10%
% damage, Bromus (Bromus; 125 g ai/ha): 100%
% damage, Bromus (Bromus; 250 g ai/ha): 100%
% damage, Lolium (Lolium; 125 g ai/ha): 100%
% damage, Lolium (Lolium; 250 g ai/ha): 100%
% damage, Abutilon (Abutilon): 80%
% damage, Oilseed rape (Oilseed rape): 0%
% damage, Avena fatua (Avena fatua; 125 g ai/ha): 100%
% damage, Avena fatua (Avena fatua; 250 g ai/ha): 100%
Kill rate in % after 7d [4]: 100%
Kill rate in % after 7d [7]: 100%

Cc1cc(-c2ccc(Cl)cc2)nn1C1=C(O)C2(CCC(C(F)(F)F)CC2)OC1=O (centres unmarked) [Example I-2-A-a-2]
logP (pH 2.3) [1]: 2.74

Cc1cc(-c2cccc(C(F)(F)F)c2)nn1C1=C(O)C(C)(CC(C)(C)C)OC1=O (centres unmarked) [Example I-2-A-a-10]
logP (pH 2.3) [1]: 2.92

CCOC(=O)C1(OC(=O)Cn2nc(-c3ccc(Cl)cc3)cc2C)CCC(OC)CC1 (centres unmarked) [Example III-A-1]
chromatographic logP [1]: 4.11
